{"source": "patent US20230127703A1", "about": "“THERAPEUTIC AGENT FOR CORONAVIRUS INFECTION” (FUJIFILM Toyama Chemical Co., Ltd., priority 2020, published 2023)", "test_system": "SARS-CoV-2", "key": {"[1]": {"settings": "improvement of body temperature, SpO2, chest imaging followed by negative conversion of SARS-CoV-2, N = 107"}}}
{"smiles": "NC(=O)c1nc(F)cnc1O", "note": "[Compound A, 6-fluoro-3-hydroxy-2-pyrazinecarboxamide]", "values": [{"measurement": "median time to improvement compared with control group", "setting": "Compound A group (107 patients) vs control group (49 patients)", "result": "shorter by approximately three days"}, {"measurement": "treatment effect compared with control group", "setting": "Compound A group vs control group", "result": "statistically significantly higher treatment effect"}, {"measurement": "clinical safety", "setting": "Compound A group, 107 patients, up to 14 days of treatment", "result": "no clinical safety concerns were identified"}, {"measurement": "Time to improvement in 25% of patients (days) (median)", "setting": "[1]", "result": 7.7, "unit": "days"}, {"measurement": "Time to improvement in 50% of patients (days) (median)", "setting": "[1]", "result": 11.8, "unit": "days"}, {"measurement": "Time to improvement in 75% of patients (days) (median)", "setting": "[1]", "result": 15.6, "unit": "days"}, {"measurement": "Patients with improvement", "setting": "number of patients of N = 107, standard of care + 1,800 mg BID Day 1, 800 mg BID up to 13 days, oral, mITT", "result": 82}]}
